Experimental data from the pKa sets of Baltruschat and Czodrowski (2020).

conditions: acidic group

SMILES | pKa
O=C(O)c1ccsc1 | 4.03
N#CC1C=CN(Cc2cccc(F)c2)C=C1C(N)=O (stereo not drawn) | 0.68
CC(C[Si](C)(C)CCl)C(=O)O (stereo not drawn) | 5.32
Nc1cccc(O)c1 | 9.85
O=C(Cc1ccncc1)c1ccccc1 | 12.7
Cc1n[nH]c2ncnc(N)c12 | 11.1
CCOc1ccc(C(=O)NC(=S)N(CC)CC)cc1 | 8.83
Cc1ccc(C(=O)O)c(Br)c1 | 3.09
Cc1cc(C(=O)O)ccc1Cl | 4.07
N#CCCC(=O)O | 3.98
O=c1ccccc(O)c1O | 6.72
Oc1ccccc1C1=[NH+]CCN1 | 6.63
O=C(O)c1ccc(I)o1 | 2.94
CCCCCCP(=O)(CCCCCC)CCCCCC | 12.8
O=C(O)c1coc2ccccc12 | 4.18
O=C(NO)c1ccccc1 | 8.71
Cc1ncc2c(c1O)C(=O)OC2 | 7.05
NC(=O)C(N)CO (stereo not drawn) | 7.3
Oc1c2ccccc2[nH+]c2ccccc12 | 0.32
CC(C)(C(N)=O)S(N)(=O)=O | 9.92
O=C(c1ccccc1)c1ccc([O-])[n+](O)c1 | 5.13
O=C([O-])C[NH2+]CCc1nnn[nH]1 | 4.32

SMILES | pKa
Cc1cnc(C)c(O)c1C=O | 8.08
CNc1nnc(S(N)(=O)=O)s1 | 7.8
COCc1ccc(C(=O)O)cc1 | 4.18
O=C1CCC(=O)C1 | 4.5
CCOC(=O)/C(=N/O)c1ccccc1 | 8.95
O=c1ccc(Br)ccc1O | 6.32
CCOC(=O)c1ccccc1-n1nc(O)cc1-c1ccccc1 | 12.4
Cc1cc(C(C)C)cc(C)c1O | 10.9
Cc1cc(C)c(/N=N/c2c(C)cc(O)cc2C)c(C)c1 | 9.1
Cc1cc(O)c(C(C)C)cc1Nc1ccc(O)cc1 | 9.85
CC[NH+](CC)CC(=O)O | 1.98
O=C1NC(=O)C2(CCOc3ccc(F)cc32)N1 (stereo not drawn) | 8.3
CCO[C@H]1C[C@@H]1C(=O)O | 4.46
O=C(O)c1ccc2[nH]ccc2c1 | 4.1
CC(=O)[n+]1cccc(Cl)c1 | 2.98
O=C([O-])[C@@H](NCC[NH2+][C@@H](C(=O)[O-])c1ccccc1[O-])c1ccccc1O | 10.8
O=C(O)C[NH+](CCNS(=O)(=O)c1ccccc1)CC(=O)O | 2.1
OCc1cccc(O)c1 | 9.83
C[n+]1ccc2ccccc2c1S | -2.13
CC(C)(C)c1ccc(C(=O)/C=C/C(=O)O)cc1 | 3.42
[O-]c1ccc(O)n[nH+]1 | 5.73
C[NH+](C)CCCCCCNC(=O)/C=N/O | 8.93

SMILES | pKa
Oc1onc(-c2ccccc2)c1Br | 2.3
[O-]c1ccccc1-c1ccccc1O | 14.7
O=C(O)[C@@H]1CC[C@@H](C(=O)O)[Se][Se]1 | 2.85
CC(C)=C=CC(C)(C)C(=O)O | 4.7
O=C(O)[C@]12C[NH2+]CC[C@H]1O2 | 2.63
Cc1ccc(O)c2[n+]1CCS2 | 4.7
[NH3+]CCc1cccc(O)c1 | 9.27
CCC(O)C(C(=O)O)c1ccc(-c2ccccc2)cc1 (stereo not drawn) | 4.16
NC(=O)CCCCCCCCC(=O)NO | 9.49
c1ccc(-c2nc3ccccc3[nH]2)cc1 | 11.9
C(C[NH2+]CCc1nnn[nH]1)[NH2+]CCc1nnn[n-]1 | 4.09
Cc1c(Cl)ccc2c1nnn2O | 4.09
C=CC(O)OCC(C)O (stereo not drawn) | 5.5
Oc1cccc2c1Nc1ccccc1N2 | 10.9
Oc1ccc2ccccc2c1 | 9.6
Cc1c(Cl)cccc1C(=O)O | 3.43
Oc1cccc(Br)c1 | 8.99
O=C(O)CCCc1ccccc1 | 4.78
Cn1cnc2[nH]c(=O)[nH]c(=S)c21 | 6.8
COc1ccc(B(O)O)cc1 | 9.32
COc1nc(-n2nc(C)cc2O)nc(C)c1C | 7.64
CCSC(O)O | 11.5

SMILES | pKa
CC(=O)c1ccc(C(=O)O)s1 | 3
CCCCCC[NH2+]CCC(=O)O | 3.61
[O-]c1ccc(O)cc1 | 11.6
NC(=S)C(N)=S | 10.9
O=C(O)CCS | 4.38
Cc1ccc(O)c(C(C)C)c1 | 10.7
CONc1cc(=O)n(C)c(=O)n1C | 10.6
CC=O | 16.8
COc1cccc(C)c1C(=O)O | 3.46
Cc1cc([N+](=O)[O-])ccc1NN=C(C#N)C#N | 5.5
Cc1ccc(Cl)cc1C(=O)O | 3.63
O=c1[nH]c2ccccc2c(=O)o1 | 8.25
Oc1ccc(-c2nnn[nH]2)cc1 | 4.28
O=C([O-])[C@@H]1CC[C@@H](C(=O)O)[Se]1 | 4.35
CC(=O)[C@@H]1C[C@@H]1C(=O)O | 4.19
CCCCCCCC[NH2+]CCC(=O)O | 3.56
CC1C(=O)c2ccccc2C1=O | 6.17
S=C(S)N1CCCC1 | 2.97
CC(=O)N1C[C@@]2(C(C)C)OC(=O)C[C@H]2[C@@H]1C(=O)O | 3.2
O=C(O)CSCc1ccccc1 | 3.73
COc1ccc([C@H]2C[C@@H]2C(=O)O)cc1 | 4.62
COc1ccc(C(=S)Nc2ccc(Cl)c(Cl)c2)cc1 | 10.1

same assay, conditions: basic group

SMILES | pKa
CCCCCCCCCCCCNCCCCCCCCCCCC | 11
c1c[nH+]ccn1 | -5.55
CC(C)(C)NC1CCCCC1 | 11.3
Nc1cccc(O)c1 | 4.29
Cc1ccc2ncccc2c1 | 5.1
O=C(Cc1ccncc1)c1ccccc1 | 4.63
Cn1cnc2c([O-])ncnc21 | 9.11
CN(C)CC(C)(C)C | 9.75
Cc1n[nH]c2ncnc(N)c12 | 4.61
Cc1cc(C)c2cccc(C)c2n1 | 4.48
c1ccc(-c2ccccn2)nc1 | 4.42
CC(C)NCC(O)c1cccc(F)c1 (stereo not drawn) | 9.48
c1ncc(Cc2c[nH+]c[nH]2)[nH]1 | 5.69
COc1ccc(CN)cc1OC | 9.39
O=C([O-])c1cc(-c2ccccc2)nnc1NCC[NH+]1CCOCC1 | 3.33
NCCCCCCCCCCCCN | 10.8
[O-]c1ccncc1 | 11.1
Nc1nc2ccccc2[nH]1 | 7.49
c1ccc(-c2[nH]cc[nH+]2)nc1 | 0.6
N[C@H]1C[C@@H]1N | 8.82
COC(=O)c1c2ccccc2nc2ccccc12 | 3.45
Cc1cnc(C)c(O)c1C=O | 4.1
CCN(CC)c1ccc(C(O)(c2ccccc2)c2ccc(N(CC)CC)cc2)cc1 | 7.9
C1CCCNCC1 | 11

SMILES | pKa
CC(Br)(CN)[N+](=O)[O-] (stereo not drawn) | 6.15
Cc1cccc(Cl)c1/C(=N/CCCN(C)C)c1ccccc1 | 8.8
NC(=S)c1ccccc1 | -3.2
CCc1ccc(N)cc1 | 5.16
NCCCCO | 10.3
c1cnc2c(c1)CCCC2 | 6.6
CCCCCCNc1ccccc1 | 5.21
COc1ccc(/C=N/c2ncc3nc[nH]c3n2)cc1 | 3.86
CC(C)(C)n1ccnc1 | 7.35
N/C(CC[NH2+]c1ccccc1)=N\O | 2.45
Cc1ccc(N)cc1C[NH3+] | 4.67
CC1CCCCN1 (stereo not drawn) | 11
Cc1ccc(C(=N)c2ccccc2)c(C)c1 | 6.79
CSC(=N)N | 9.83
C1CN(CCN2CCOCC2)CCO1 | 6.65
CCCN(CCC)c1ccc([N+](=O)[O-])cc1 | 1.06
Cc1nnc(C)c(C)c1C | 5.36
C=C[C@H]1C[NH+]2CC[C@@H]1C[C@H]2[C@H](O)c1ccnc2ccc(OC)cc12 | 4.22
Cc1nc(N)c2cnn(C)c2n1 | 5
c1ccc(C2NCCS2)cc1 (stereo not drawn) | 5.2
C=Cc1c(C)c2cc3[nH+]c(c(CC(=O)OC)c4[nH]c(cc5nc(cc1[nH]2)C(C)=C5CC)c(C)c4C(=O)NCC)[C@@H](CCC(=O)OC)[C@@H]3C | 0
N=C1C=C(N)C(=O)c2ccccc21 | 8.87
[NH3+]CCc1c[nH]cn1 | 6.08
[O-]c1[nH+]ccc2c1cnc1ccccc12 | 4.1

SMILES | pKa
c1ccc(Oc2ccccn2)cc1 | 2.35
CCCCSC1=NCCN1 | 9
CN(C)CCCN(C)C(=O)/C=N/[O-] | 9.83
CN(C)C1CCCCC1 | 10.5
C=C(C)C(=O)OCCNCC | 9.15
Ic1cccc(C2NCCS2)c1 (stereo not drawn) | 4.93
CN(C)[C@H]1CCC[C@@H]1C#N | 7.02
CCSC(C)=N | 6.9
Oc1ccc2c(c1)Nc1ccccc1N2 | 1.8
CCOC(=O)c1cnc2ccccc2c1[O-] | 9.62
CO[C@H]1CC=C2CCN3CCC(CO)=C(CCO)[C@]23C1 | 8.69
NCCNCCCO | 9.67
C[n+]1c(NN)ccc2ccccc21 | 2.66
Nc1ncc(Sc2ccccc2)s1 | 4.16
COC(=O)c1cccnc1 | 3.23
C=C(C)C(=O)OCCN(C)C | 8.06
Cc1ccccc1NC(=N)Nc1ccccc1C | 9.67
CCN(CC)CCCC(C)Nc1cc(C)nc2cc(Cl)ccc12 (stereo not drawn) | 10.2
Cc1c[nH]c(C)n1 | 8.39
Cn1cnc2[nH]c(=O)[nH]c(=S)c21 | 0.3
Cc1cc(C)n(C)n1 | 3.96
CCOC(=O)C1CC2CCN1CC2 (stereo not drawn) | 8.8
[SH2+]c1ccc2ncccc2c1 | 3.95
Cc1cc(-c2ccccc2)n[n+](CCN2CCOCC2)c1N | 4.84

SMILES | pKa
Nc1cccc([N+](=O)[O-])c1 | 2.6
CCNN(C)CC | 6.81
COc1cc(O)ccc1C(=N)c1ccccc1 | 5.99
CC(C)NNC1CCN(C(C)C)CC1 | 9.55
CCC(O)CN(C)CCO (stereo not drawn) | 8.7
CN1CCNCC1 | 9.6
C=CC(C)(C)N(C)C(C)(C)C | 11.3
CC=O | -0.57
CCN(C(C)C)C(C)C | 11.4
Cc1cc([N+](=O)[O-])ccc1NN=C(C#N)C#N | -0.74
CCCN(N)CCC | 7
OCCN(CCO)Cc1nc2ccccc2[nH]1 | 5.93
C1=C(c2nc3ccccc3s2)C2CCN1CC2 | 7.4
CNc1ccc(OC)cc1 | 5.93
Nc1ncc2[nH]c[nH+]c2n1 | -0.28
[O-]c1c(Cl)cc(Cl)cc1CN1CCOCC1 | 8.85
Cc1cc(CN)c(O)c(CN)c1 | 9.7
CC/N=c1\sc(-c2ccccc2)nn1CC | 6.7
OC[C@H](O)[C@H](O)[C@@H](O)[C@H](O)c1nc2ccccc2[nH]1 | 5.28
Nc1cccc2c1ccc1ncccc12 | 5.2
[O-][n+]1ccc2ccccc2c1 | 1.01
NOCc1ccccc1 | 4.34
Cc1ccc(N)nc1 | 7.22
